Experimental data from patent US20250073223A1, “TARGETED NANOCARRIERS FOR SYSTEMIC DELIVERY OF IRAK4 INHIBITORS TO INFLAMED TISSUES” (Oregon State University, priority 2023, published 2025).

Tests used:
[1] = test system: mice with DSS-induced colitis; assay: DSS-induced colitis efficacy (colon length, body weight, colon damage); assay type: in vivo, C57BL/6 mice
Experimental: To evaluate the anti-inflammatory action of the developed VCAM1-IRAK4 NC, mice were administered with 5% DSS in drinking water for 7 days and injected IV with the VCAM1-targeted nanocarriers loaded with IRAK4 inhibitor (23 mg kg^−1) on day 0, 2, 4, and 6 of DSS treatment initiation (Y. Lec, K. Sugihara, M. G. Gillilland, 3rd, S. Jon, N. Kamada, J. J. Moon, Nat. Mater. 2020, 19, 118). […] A healthy control group without DSS administration and a DSS-induced colitis group without the injection of VCAM1-IRAK4 NC were also prepared. […] Pharmacother. 2022, 153, 113459).
In vivo evaluation of VCAM1-IRAK4 NC in mice with DSS-induced colitis. […] To evaluate the accumulation of VCAM1-targeted nanocarriers in inflamed tissue, the shaved mice with induced colitis were injected IV with SiNc-loaded IRAK4 NC and VCAM1-IRAK4 NC, and NIR fluorescence images of the excised colons and major organs were recorded 24 hours post-administration. The fluorescence images were obtained using a Pearl Impulse fluorescence imaging system (LI-COR, Lincoln, NE) and the mean fluorescence intensity of region of interest was obtained using Pearl Impulse Software (LI-COR, Lincoln, NE). […] Colon length without the cecum was measured, and colon tissues were gently washed with PBS. […] NucBlue™ Fixed Cell ReadyProbes™ Reagent (ThermoFisher Scientific, Waltham, MA, USA) was used to stain the nuclei. […]

[2] = cited from earlier work

In the case of CC[C@@H]1[C@H](F)C(=O)N[C@@H]1COc1nccc2cc(C(N)=O)c(OC)cc12 [PF-06650833, zimlovisertib], the average colon length ([1]; free drug in 60% saline, 30% PEG400, 10% DMSO, 23 mg kg^−1, 4 IV injections, healthy 5.97±0.18, DSS saline 4.87±0.12 (FIG. 15A)) is listed as 4.74±0.35 cm, the “therapeutic effect on colitis” value ([1]; free drug, 23 mg kg^−1, 4 IV injections every 2 days) is listed as “no noticeable therapeutic effect” and the absolute oral bioavailability ([2]; oral) is listed as “low”. For the same molecule, the dose-limiting side effects ([2]; two phase I clinical trials) was “no dose-limiting side effects were observed” and the tolerability ([2]; two phase I clinical trials) was “well tolerated”.
